Results from patent publication US20250064841A1, “Aqueous Composition Comprising Avermectins” (HWI Pharma Services GmbH, priority 2022, published 2025).

Experiments:
rats = experiment: Histopathological examination of nostrils, nasal cavity and pharynx (local tolerability); format: in vivo; conditions: dose as high as 12.5 mg/kg in rats, intranasal
Description: Subsequent to the last blood sampling animals were sacrificed by induction of a deep anesthesia with isoflurane followed by rapid exsanguinations. Then both nostrils and nasal cavity including pharynx were collected from all animals and preserved in neutral buffered formaldehyde (4%) for histopathological examination. Afterwards, tissues for the histopathological investigation were trimmed and embedded in paraplast®. The slides were HE (hematoxylin and eosin)-stained and histopathologically examined.

SARS-Covid 2 virus = conditions: cited Monash lab experiments; cited from earlier work
[1] = Particle size distribution (PSD) by laser diffraction, Malvern Mastersizer 2000/3000; format: physicochemical
Description: The mean particle size distribution is preferably obtained by laser diffraction. In a laser diffraction measurement, a laser beam passes through a dispersed particulate sample and the angular variation in intensity of the scattered light is measured. Large particles scatter light at small angles relative to the laser beam and small particles scatter light at large angles. The angular scattering intensity data is then analyzed to calculate the size of the particles that created the scattering pattern using the Mie theory of light scattering. The particle size is reported as a volume equivalent sphere diameter. The folded optical design in the Mastersizer 3000 (from Malvern Panalytical), which was in particular used for the measurements, provides a particle size range from 10 nm up to 3.5 mm using a single optical measurement path. The Mastersizer 3000 uses a sequential combination of measurements with red and blue light sources to measure across the entire particle size range.
The pharmaceutically active agent is grinded in a mortar/pestle system to the appropriate particles size prior to its use. Afterwards the Particles Size Distribution (PSD) is measured using a Malvern Master Sizer 3000. The samples after grinding are stored in tightly closed brown glass bottles.
The pharmaceutically active agent is micronised to the desired particles size using a jet mill (e.g. from SpiraNo 100 from MCKO, Germany) and screw dosing system (e.g. ZD 9 from Three-Tec Ltd., Seon, Switzerland). The diameter of the injection nozzle is selected at about 6 mm, the milling gas pressure about 2 bar, the milling temperature is about 18° C. The duration of the process is about 5-10 minutes depending on the particle size of the non-micronised active agent. Afterwards the PSD is measured with a Malvern Master Sizer 3000. The samples after micronisation are stored in tightly closed brown glass bottles.
Afterwards the PSD is measured with a Malvern Master Sizer 3000. In addition, the Zetapotential, an index for the stability of the multiparticulate suspensions is measured using a Zeta Sizer (e.g. Nano ZS) from Malvern Instruments (Dynamic Laser diffraction).
In some embodiments, the PSD of the pharmaceutically active agent, provided for the preparation of its multiparticulate suspension according to procedure 1 and procedure 2 (grinded/micronised), was measured using a Malvern Mastersizer 2000 or 3000 (in water as dispersion medium, stirrer speed 1500 rpm, Mie presentation) to give the following results:
In some embodiments, the PSD of the pharmaceutically active agent in multiparticulate suspension prepared according to procedure 3 (wet ball milling with Delta Vita 1), procedure 4 (wet ball milling Getzmann/Frewitt), procedure 5 (bulk microsuspension) and procedure 6 (final product) was measured using a Malvern Mastersizer 2000 or 3000 (in water as dispersion medium, stirrer speed 1500 rpm, Mie presentation).

Substance: ivermectin
- tolerability of the active ingredient (rats): well tolerated
- activity against SARS-Covid 2 virus (SARS-Covid 2 virus): active

Substance: ivermectin [05KB21.HM00155]
- D10 ([1]; API batch after grinding): 2.02 μm
- D50 ([1]; API batch after grinding): 6.89 μm
- D90 ([1]; API batch after grinding): 32.0 μm

Substance: ivermectin [05KB21.HM00170-]
- D10 ([1]; API batch after micronisation): 0.97 μm
- D50 ([1]; API batch after micronisation): 2.22 μm
- D90 ([1]; API batch after micronisation): 4.35 μm
